Assay results taken from patent US20180092947A1, “L-MYC Expression Maintains Self Renewal and Prolongs Multipotency of Primary Human Neural Stem Cells” (priority 2016, published 2018).

Tested on: U251 human glioma cells
Test: In vitro cytotoxicity assay, CPT-11 alone or with hCElm6 (CellTiter-Glo)
Type: cell-based
Conditions: irinotecan 0-100 μM for 4 hours, then 96 hours drug-free, conditioned medium from CE-expressing LM-NSC008 cells
From the text: To explore the therapeutic potential of LM-NSC008 cells, we characterized their migration to tumor-conditioned media in vitro. […] We performed in vitro cytotoxicity assays using human U251 glioma cells and various concentrations of irinotecan alone or in combination with CE derived from LM-NSC008 cells adenovirally transduced to express hCElm6. We observed enhanced irinotecan toxicity (500-fold) in the presence of hCElm6 in the culture media, when compared with CPT-11 alone. CE (hCElm6) activity was measured at 995 nmol/min/ml in the conditioned media derived from LM-NSC008 cells prior to cytotoxicity experiment (FIG. 2D).
Human U251 glioma cell line was used in in vitro cytotoxicity assays as described previously (Metz et al., 2013). Briefly, cells were placed into 96-well plates (5,000 cells per well, in triplicate) in […] of culture media per well and cultured for 24 hours. Irinotecan (CPT-11), diluted in control culture medium or conditioned medium from CE-expressing LM-NSC008 cells, was then added to final concentrations of 0-100 μM. Cells were incubated with irinotecan for 4 hours, after which medium was aspirated and replaced with drug-free fresh medium, and cells were grown for an additional 96 hours. […]

SMILES: CCc1c2c(nc3ccc(OC(=O)N4CCC(N5CCCCC5)CC4)cc13)-c1cc3c(c(=O)n1C2)COC(=O)[C@]3(O)CC [irinotecan]
- enhanced irinotecan toxicity in the presence of hCElm6 compared with CPT-11 alone: 500 fold
